Tested on: HepG2 cells
Assay: RNA-seq transcriptome analysis of differentially expressed genes
Type: cell-based, human
Protocol: The quality and concentration of RNA were examined by MOPS RNA electrophoresis and Eppendorf BioSpectrometer. The transcriptome analysis was performed by BGI-Wuhan China. The RNA-seq dataset of this study is accessible in the Gene Expression Omnibus (GEO) with an access number of GSE276099. The sequence library for each sample was prepared using the BGISEQ-500 platform with a 50-bp single-end (SE50) format. […]2.2.1) was used to align the clean reads to the reference genome and alignment of the clean reads to the reference genes was carried out using Bowtie2 (v2.4.5) ([Langmead and Salzberg, 2012]; [Kim et al., 2015]). Gene expression levels were calculated by RSEM (v1.3.1) ([Li and Dewey, 2011]). Analysis of differential gene expression was performed using edgeR in the Bioconductor software package ([Robinson et al., 2010]). Using a standard protocol, the RNA samples were also examined by reverse transcription and quantitative polymerase chain reaction (RT-qPCR). In brief, for reverse transcription, total RNA (1 μg) and gDNA wiper Mix were incubated at 42°C for 2 min. The samples were immediately incubated with a master mix containing 10 pmol/μL of poly (dT) primers at 37°C for 15 min and 85°C for 5 s. To detect the expression of specific genes by qPCR analysis, gene-specific primers (shown in Supplementary Table S1) were mixed with the ChamQ Universal SYBER qPCR Master Mix and the reaction was conducted using the Roche Lightcycler 480. The GAPDH value was used to normalize the results of each gene. The RNA-seq data of BCP-treated HepG2 cells were screened for DEGs. Gene symbols were turned into Enterz ID using the org.Hs.eg.db Bio-conductor R package. The cluster profiler (v4.6.2) package was used to perform the Kyoto Encyclopedia of Genes and Genomes (KEGG) and Gene Ontology (GO) enrichment analyses ([Wu et al., 2021]). Following the Transcript per million (TPM) data of the dataset, the line chart, and heatmap were plotted using ggplot2 and pheatmap R packages, respectively.

[1] = HepG2, 150 µM BCP 24 h vs ethanol, RNA-seq DEG
[2] = HepG2, 150 µM BCP 24 h vs ethanol, FDR ≤ 0.05, 1.5-fold change

Compound: C=C1CC/C=C(\C)CC[C@@H]2[C@@H]1CC2(C)C [BCP, β-caryophyllene]
- TSHZ2 logFC (BCP vs control HepG2, RNA-seq): 0.586
- TSPAN18 change (BCP vs control HepG2, RNA-seq): Up
- TSPAN18 logFC (BCP vs control HepG2, RNA-seq): 0.6055
- TTC21A change (BCP vs control HepG2, RNA-seq): Up
- TTC21A logFC (BCP vs control HepG2, RNA-seq): 1.034
- TTC30B change (BCP vs control HepG2, RNA-seq): Up
- TTC30B logFC (BCP vs control HepG2, RNA-seq): 1.0891
- TYW1B change (BCP vs control HepG2, RNA-seq): Down
- TYW1B logFC (BCP vs control HepG2, RNA-seq): -0.7579
- VEPH1 change (BCP vs control HepG2, RNA-seq): Up
- VEPH1 logFC (BCP vs control HepG2, RNA-seq): 0.6882
- WASF3 change (BCP vs control HepG2, RNA-seq): Down
- WASF3 logFC (BCP vs control HepG2, RNA-seq): -1.027
- WDR86 change (BCP vs control HepG2, RNA-seq): Down
- WDR86 logFC (BCP vs control HepG2, RNA-seq): -0.8076
- ZNF165 change (BCP vs control HepG2, RNA-seq): Up
- ZNF165 logFC (BCP vs control HepG2, RNA-seq): 0.918
- ZNF284 change (BCP vs control HepG2, RNA-seq): Down
- ZNF284 logFC (BCP vs control HepG2, RNA-seq): -0.7229
- ZNF341 change (BCP vs control HepG2, RNA-seq): Down
- ZNF341 logFC (BCP vs control HepG2, RNA-seq): -0.6282
- ADORA2A expression change (BCP_treatment) [1]: Down
- ADRA2C expression change (BCP_treatment) [1]: Down
- ALYREF expression change (BCP_treatment) [1]: Down
- ANK1 expression change (BCP_treatment) [1]: Down
- ANKFN1 expression change (BCP_treatment) [1]: Down
- ARTN expression change (BCP_treatment) [1]: markedly downregulated and Down
- B3GNT4 expression change (BCP_treatment) [1]: Down
- BICDL1 expression change (BCP_treatment) [1]: Down
- BOC expression change (BCP_treatment) [1]: Down
- BOLA2B expression change (BCP_treatment) [1]: Down
- CA5B expression change (BCP_treatment) [1]: Down
- CACNA1E expression change (BCP_treatment) [1]: markedly downregulated and Down
- CAMK2N2 expression change (BCP_treatment) [1]: Down
- CCDC86 expression change (BCP_treatment) [1]: Down
- CCL26 expression change (BCP_treatment) [1]: Down
- CHST6 expression change (BCP_treatment) [1]: Down
- CLIP2 expression change (BCP_treatment) [1]: Down
- CYP26B1 expression change (BCP_treatment) [1]: Down
- DPF1 expression change (BCP_treatment) [1]: Down
- EN2 expression change (BCP_treatment) [1]: Down
- FAM222A expression change (BCP_treatment) [1]: Down
- FBXL22 expression change (BCP_treatment) [1]: Down
- FBXO27 expression change (BCP_treatment) [1]: Down
- FBXO44 expression change (BCP_treatment) [1]: Down
- FRMD3 expression change (BCP_treatment) [1]: Down
- FUT3 expression change (BCP_treatment) [1]: Down
- GBP2 expression change (BCP_treatment) [1]: Down
- GNAZ expression change (BCP_treatment) [1]: Down
- H1-2 expression change (BCP_treatment) [1]: Down
- H2BC11 expression change (BCP_treatment) [1]: Down
- H2BC12 expression change (BCP_treatment) [1]: Down
- H3C6 expression change (BCP_treatment) [1]: Down
- H4C8 expression change (BCP_treatment) [1]: Down
- HPDL expression change (BCP_treatment) [1]: Down
- ISYNA1 expression change (BCP_treatment) [1]: Down
- KCNH3 expression change (BCP_treatment) [1]: Down
- KHDC1 expression change (BCP_treatment) [1]: Down
- LYSMD4 expression change (BCP_treatment) [1]: Down
- MAFA expression change (BCP_treatment) [1]: Down
- MAGEB17 expression change (BCP_treatment) [1]: Down
- MAP1A expression change (BCP_treatment) [1]: Down
- MNX1 expression change (BCP_treatment) [1]: Down
- MYB expression change (BCP_treatment) [1]: Down
- MYEOV expression change (BCP_treatment) [1]: Down
- NES expression change (BCP_treatment) [1]: Down
- NR6A1 expression change (BCP_treatment) [1]: Down
- PAQR5 expression change (BCP_treatment) [1]: Down
- PGF expression change (BCP_treatment) [1]: markedly downregulated and Down
- PI3 expression change (BCP_treatment) [1]: Down
- RAPGEF3 expression change (BCP_treatment) [1]: Down
- RASD2 expression change (BCP_treatment) [1]: Down
- RHBDL3 expression change (BCP_treatment) [1]: Down
- S100A3 expression change (BCP_treatment) [1]: Down
- SCIN expression change (BCP_treatment) [1]: Down
- SHC3 expression change (BCP_treatment) [1]: Down
- SLC4A11 expression change (BCP_treatment) [1]: Down
- SP6 expression change (BCP_treatment) [1]: Down
- STXBP6 expression change (BCP_treatment) [1]: Down
- SYN3 expression change (BCP_treatment) [1]: Down
- TMEM120B expression change (BCP_treatment) [1]: Down
- TMEM158 expression change (BCP_treatment) [1]: Down
- TNFSF15 expression change (BCP_treatment) [1]: Down
- TRNP1 expression change (BCP_treatment) [1]: Down
- VAMP1 expression change (BCP_treatment) [1]: Down
- ZBED6CL expression change (BCP_treatment) [1]: Down
- ZNF284 expression change (BCP_treatment) [1]: Down
- ZNF341 expression change (BCP_treatment) [1]: Down
- number of downregulated genes [2]: 245
- number of upregulated genes [2]: 188
- total number of DEGs [2]: 433
- logFC ABLIM2 (gene ABLIM2, BCP vs control HepG2, RNA-seq): 1.01
- change ABLIM2 (gene ABLIM2, DEG direction, BCP vs control HepG2): Up
- logFC ACKR3 (gene ACKR3, BCP vs control HepG2, RNA-seq): 0.6675
- change ACKR3 (gene ACKR3, DEG direction, BCP vs control HepG2): Up
- logFC ACYP2 (gene ACYP2, BCP vs control HepG2, RNA-seq): -0.6093
- change ACYP2 (gene ACYP2, DEG direction, BCP vs control HepG2): Down
- logFC ADGRD1 (gene ADGRD1, BCP vs control HepG2, RNA-seq): 0.8304
- change ADGRD1 (gene ADGRD1, DEG direction, BCP vs control HepG2): Up
- logFC ADGRG6 (gene ADGRG6, BCP vs control HepG2, RNA-seq): 0.7321
- change ADGRG6 (gene ADGRG6, DEG direction, BCP vs control HepG2): Up
- logFC AKR1B1 (gene AKR1B1, BCP vs control HepG2, RNA-seq): -0.8932
- change AKR1B1 (gene AKR1B1, DEG direction, BCP vs control HepG2): Down
- logFC ALDH1L2 (gene ALDH1L2, BCP vs control HepG2, RNA-seq): 0.8642
- change ALDH1L2 (gene ALDH1L2, DEG direction, BCP vs control HepG2): Up
- logFC ALPI (gene ALPI, BCP vs control HepG2, RNA-seq): 0.9718
- change ALPI (gene ALPI, DEG direction, BCP vs control HepG2): Up
- logFC ALPL (gene ALPL, BCP vs control HepG2, RNA-seq): 1.081
- change ALPL (gene ALPL, DEG direction, BCP vs control HepG2): Up
- logFC ALYREF (gene ALYREF, BCP vs control HepG2, RNA-seq): -0.7733
- change ALYREF (gene ALYREF, DEG direction, BCP vs control HepG2): Down
- logFC AMPD2 (gene AMPD2, BCP vs control HepG2, RNA-seq): -0.8008
- change AMPD2 (gene AMPD2, DEG direction, BCP vs control HepG2): Down
- logFC ANKFN1 (gene ANKFN1, BCP vs control HepG2, RNA-seq): -1.752
- change ANKFN1 (gene ANKFN1, DEG direction, BCP vs control HepG2): Down
- logFC ANO2 (gene ANO2, BCP vs control HepG2, RNA-seq): 1.524
- change ANO2 (gene ANO2, DEG direction, BCP vs control HepG2): Up

Reference: paper PMC11671526, “β-caryophyllene sensitizes hepatocellular carcinoma cells to chemotherapeutics and inhibits cell malignancy through targeting MAPK signaling pathway” (Frontiers in Pharmacology, 2024)
